# Test results reported in patent US20090275567A1, “2-HETEROCYCLOAMINO-4-IMIDAZOLYLPYRIMIDINES AS AGENTS FOR THE INHIBITION OF CELL PROLIFERATION” (priority 2006, published 2009).
# Target: T1, CDK2/Cyclin E (Homo sapiens, UniProt P24941)
# T1 construct: made in house; host or cells: Sf21 (Spodoptera frugiperda) insect cells, baculovirus co-infection; the GST-Rb substrate was made in E. coli BL21 (DE3) pLysS
# Assay: in vitro kinase assay (Scintillation Proximity Assay), CDK2/Cyclin E, GST-Rb substrate
# Assay type: biochemical
# Conditions: CDK2/Cyclin E partially-purified enzyme, 0.2 μM ATP, read-out: CDK2 inhibitory activity IC50
# Method: The compounds were tested in an in vitro kinase assay in 96 well format using Scintillation Proximity Assay (SPA—obtained from Amersham) for measuring incorporation of [γ-33-P]-Adenosine Triphosphate into a test substrate (GST-Retinoblastoma protein; GST-Rb). In each well was placed the compound to be tested (diluted in DMSO and water to correct concentrations) and in control wells either roscovitine as an inhibitor control or DMSO as a positive control. […]
# The plates were sealed with Topseal-S plate sealers, left for two hrs then spun at 2500 rpm, 1124×g., for 5 mins. The plates were read on a Topcount for 30 seconds per well. […]
# E. coli paste was resuspended in 10 ml/g of NETN buffer (50 mM Tris pH 7.5, 120 mM NaCl, 1 mM EDTA, 0.5% v/v NP-40, 1 mM PMSF, 1 ug/ml leupeptin, 1 ug/ml aprotinin and 1 ug/ml pepstatin) and sonicated for 2×45 seconds per 100 ml homogenate. […] The final product was analysed by Sodium Dodeca Sulfate (SDS) PAGE (Polyacrylamide gel) using 8-16% Tris-Glycine gels (Novex, San Diego, USA).
# The open reading frames of CDK2 and Cyclin E were isolated by reverse transcriptase-PCR using HeLa cell and activated T cell mRNA as a template and cloned into the insect expression vector pVL1393 (obtained from Invitrogen 1995 catalogue number: V1392-20). […]
smiles,measurement,value
"CC(=O)N1CCC(Nc2nccc(-c3cnc(C)n3C(C)C)n2)CC1 [Example 29, 1-[4-[[4-(2-Methyl-3-propan-2-yl-imidazol-4-yl)pyrimidin-2-yl]amino]-1-piperidinyl]ethanone]",IC50,95 nM
